Results on 13 compounds are retold here after patent US9670172B2, “Heterocyclic compounds and methods of use” (Medivation Technologies, Inc., priority 2014, dated 2017).

Where two headings read alike, the source gives them in different places.

One data set concerns SREBP2. Put plainly: SREBP2 cleavage in HEPG2 cells (Western blot normalized to actin). Conditions: Homo sapiens, read-out: Average SREBP2 cleavage (% Inhibition, n = 3). The class given is cell-based. Here is the method:
Average SREBP2 cleavage in HEPG2 cells was measured in the presence of compounds disclosed in Table 1. HepG2 cells were seeded at 500,000 cells per well in 6-well plates in DMEM supplemented with 10% FBS. After 2 days, cells were treated with compounds (20 μM) for 1 day in DMEM without FBS. Western blots were normalized with respect to actin.
The results are shown in Table 3 as percent inhibition@20 μM, and in Table 4 as percent inhibition@5 μM.

Data set [1] is described as follows: HepG2 cell viability by MTS. Conditions: human, HepG2 cells, 3 days, DMEM without FBS, MTS, read-out: Average Viability (% Inhibition, n = 3). It is filed as cell-based. Here is the method:
For viability measurements, HepG2 cells were seeded at 5,000 cells per well in 96-well plates in DMEM supplemented with 10% FBS. After 1 day in culture, cells were treated with compounds (20 μM & 5 μM) for 3 days in DMEM without FBS. Viability was measured by MTS. Treatment with compounds (20 μM & 5 μM) was carried out in medium without FBS, and viability was measured by MTS. […]

The nature of data set [2]: PK parameters for representative compounds (i.v. and p.o.). Particulars: in vivo; for half-life: read-out: Terminal t1/2 (converted). From the text: Standard PK parameters were collected in Mouse and Dog for Compound #37 in mouse (FIG. 4A) and dog (FIG. 4B).
Setting [3] is: 24 h, 20 μM, HepG2 cells, 1 day, DMEM without FBS.

Consider `O=S(=O)(Nc1ccc(-c2csc(-c3ccnc(CCC(F)(F)F)c3)n2)c(Cl)c1)C(F)(F)F` [Compound 64, N-(3-chloro-4-{2-[2-(3,3,3-trifluoropropyl)pyridin-4-yl]-1,3-thiazol-4-yl}phenyl)-1,1,1-trifluoromethanesulfonamide], for which, in the data set on SREBP2 (setting [3]), the inhibition at 20 µM came to 97%. Besides, in data set [1], the cytotoxicity at 3 days, 20 μM was found to be 100%. In data set [2] (iv, i.v. @ 2 mg/kg), this compound showed an AUC(0-t) of 38.5 µM·h, a Cmax of 7.13 µM, a Vd of 1.95 L/kg and a clearance of 0.917 mL/min/kg. Also, in data set [2] (po, p.o. @ 10 mg/kg), the AUC(0-t) is 526 µM·h, the Cmax came out at 32.1 µM, the Tmax came out at 24 h and the bioavailability was 273%. For the same compound, the half-life in data set [2] (po, p.o. @ 10 mg/kg) is above 8 h.

As to `O=S(=O)(Nc1ccc(-c2csc(-c3ccnc(Cc4ccccc4)c3)n2)c(Cl)c1)C(F)(F)F` [Compound 60, N-{4-[2-(2-benzylpyridin-4-yl)-1,3-thiazol-4-yl]-3-chlorophenyl}-1,1,1-trifluoromethanesulfonamide], in the data set with SREBP2 (setting [3]), the inhibition at 20 µM was 99%. For the same compound, the cytotoxicity at 3 days, 20 μM in data set [1] was found to be 100%. In data set [2] (iv, i.v. @ 2 mg/kg), this compound had an exposure AUC(0-t) of 12.6 µM·h, a Cmax of 3.38 µM, a Vd of 1.28 L/kg and a clearance of 4.8 mL/min/kg. Also, the half-life in data set [2] (iv, i.v. @ 2 mg/kg) was 3.08 h. In data set [2] (po, p.o. @ 10 mg/kg), the exposure AUC(0-t) is 57.1 µM·h, the highest level (Cmax) was 6.58 µM, the Tmax came out at 4 h and the bioavailability amounted to 90.2%. Also, the half-life in data set [2] (po, p.o. @ 10 mg/kg) is above 8 h.

As to `O=S(=O)(Nc1ccc(-c2csc(-c3ccc4c(c3)CCO4)n2)c(Cl)c1)C(F)(F)F` [Compound 82, N-{3-chloro-4-[2-(2,3-dihydro-1-benzofuran-5-yl)-1,3-thiazol-4-yl]phenyl}-1,1,1-trifluoromethanesulfonamide], the inhibition at 5 µM in the data set on SREBP2 (HepG2 cells) stood at 77%. The cytotoxicity at 3 days, 5 μM in data set [1] was found to be 82%. In data set [2] (iv, i.v. @ 2 mg/kg), the area under the curve AUC(0-t) was found to be 25.4 µM·h, the Cmax amounted to 12.6 µM, the Vd was 0.719 L/kg and the clearance was 2.28 mL/min/kg. The half-life in data set [2] (iv, i.v. @ 2 mg/kg) is 3.64 h. In data set [2] (po, p.o. @ 10 mg/kg), the exposure AUC(0-t) is 175 µM·h, the Cmax is 25.8 µM, the time of peak concentration (Tmax) was determined as 4 h and the bioavailability was found to be 138%. The half-life in data set [2] (po, p.o. @ 10 mg/kg) was above 8 h.

Take `O=S(=O)(Nc1ccc(-c2csc(-c3ccnc(N4CCCCC4)c3)n2)c(Cl)c1)C(F)(F)F` [Compound 85, N-(3-chloro-4-{2-[2-(piperidin-1-yl)pyridin-4-yl]-1,3-thiazol-4-yl}phenyl)-1,1,1-trifluoromethanesulfonamide]: the inhibition at 5 µM in the data set with SREBP2 (HepG2 cells) was determined as 82%. Moreover, in data set [1], the cytotoxicity at 3 days, 5 μM was found to be 93%. In data set [2] (iv, i.v. @ 2 mg/kg), this compound gave an AUC(0-t) of 0.655 µM·h, a Cmax of 0.241 µM, a Vd of 27.3 L/kg and a clearance of 77.2 mL/min/kg. In addition, the half-life in data set [2] (iv, i.v. @ 2 mg/kg) is 4.08 h. For the same compound, in data set [2] (po, p.o. @ 10 mg/kg), the AUC(0-t) stood at 2.27 µM·h, the concentration peaked (Cmax) at 0.45 µM, the time to peak (Tmax) is 2 h and the bioavailability came to 69.3%. Besides, the half-life in data set [2] (po, p.o. @ 10 mg/kg) is above 8 h.

As to `O=S(=O)(Nc1ccc(-c2csc(-c3cccc4ccccc34)n2)c(Cl)c1)C(F)(F)F` [Compound 71, N-{3-chloro-4-[2-(naphthalen-1-yl)-1,3-thiazol-4-yl]phenyl}-1,1,1-trifluoromethanesulfonamide], the inhibition at 5 µM in the data set with SREBP2 (HepG2 cells) stood at 77%. For the same compound, the cytotoxicity at 3 days, 5 μM in data set [1] was 97%. Further, in data set [2] (iv, i.v. @ 2 mg/kg), the exposure AUC(0-t) was determined as 13.6 µM·h, the Cmax is 3.57 µM, the Vd was 1.27 L/kg and the clearance was 4.18 mL/min/kg. Also, in data set [2] (iv, i.v. @ 2 mg/kg), the half-life is 3.5 h. For the same compound, in data set [2] (po, p.o. @ 10 mg/kg), the AUC(0-t) was 51.5 µM·h, the concentration peaked (Cmax) at 7.57 µM, the Tmax was 4 h and the bioavailability was 75.9%. Moreover, the half-life in data set [2] (po, p.o. @ 10 mg/kg) was above 8 h.

Consider `O=S(=O)(Nc1ccc(-c2csc(-c3cccc4[nH]ccc34)n2)c(Cl)c1)C(F)(F)F` [Compound 80, N-{3-chloro-4-[2-(1H-indol-4-yl)-1,3-thiazol-4-yl]phenyl}-1,1,1-trifluoromethanesulfonamide], for which the inhibition at 5 µM in the data set with SREBP2 (HepG2 cells) amounted to 90%. In data set [1], the cytotoxicity at 3 days, 5 μM is 86%. In data set [2] (iv, i.v. @ 2 mg/kg), this compound had an AUC(0-t) of 8.94 µM·h, a maximum concentration (Cmax) of 3.63 µM, a Vd of 1.72 L/kg and a clearance of 70.8 mL/min/kg. In data set [2] (iv, i.v. @ 2 mg/kg), the half-life is 2.8 h. Further, in data set [2] (po, p.o. @ 10 mg/kg), the AUC(0-t) was found to be 130 µM·h, the maximum concentration (Cmax) was 20.6 µM, the Tmax was found to be 4 h and the bioavailability amounted to 291%. The half-life in data set [2] (po, p.o. @ 10 mg/kg) is above 8 h.

Take `O=S(=O)(Nc1ccc(-c2csc(-c3ccc4cc[nH]c4c3)n2)c(Cl)c1)C(F)(F)F` [Compound 72, N-{3-chloro-4-[2-(1H-indol-6-yl)-1,3-thiazol-4-yl]phenyl}-1,1,1-trifluoromethanesulfonamide]: the inhibition at 5 µM in the data set on SREBP2 (HepG2 cells) came to 61%. In addition, the cytotoxicity at 3 days, 5 μM in data set [1] amounted to 94%.

Regarding `CCCc1cc(-c2nc(-c3ccc(NS(=O)(=O)C(F)(F)F)cc3Cl)cs2)ccn1` [Compound 4, N-(3-chloro-4-(2-(2-propylpyridin-4-yl)thiazol-4-yl)phenyl)-1,1,1-trifluoromethanesulfonamide], the inhibition at 20 µM in the data set on SREBP2 (HepG2, 24 h) came to 96.1%. In addition, in data set [1], the cytotoxicity at 3 days, 20 μM worked out at 94.4%.

Regarding `O=S(=O)(Nc1ccc(-c2csc(-c3csc4ccccc34)n2)c(Cl)c1)C(F)(F)F` [Compound 90, N-{4-[2-(1-benzothiophen-3-yl)-1,3-thiazol-4-yl]-3-chlorophenyl}-1,1,1-trifluoromethanesulfonamide], the inhibition at 5 µM in the data set with SREBP2 (HepG2 cells) amounted to 64%. Moreover, the cytotoxicity at 3 days, 5 μM in data set [1] amounted to 99%.

Turning to `O=S(=O)(Nc1ccc(-c2csc(-c3ccc(F)cc3CN3CCCC3)n2)c(Cl)c1)C(F)(F)F` [Compound 91, N-(3-chloro-4-{2-[4-fluoro-2-(pyrrolidin-1-ylmethyl)phenyl]-1,3-thiazol-4-yl}phenyl)-1,1,1-trifluoromethanesulfonamide], the inhibition at 5 µM with SREBP2 (HepG2 cells) turned out to be 16%. The cytotoxicity at 3 days, 5 μM in data set [1] came to 4%.

As to `O=S(=O)(Nc1ccc(-c2csc(-c3cccc(N4CCCCC4)c3)n2)c(Cl)c1)C(F)(F)F` [Compound 88, N-(3-chloro-4-{2-[3-(piperidin-1-yl)phenyl]-1,3-thiazol-4-yl}phenyl)-1,1,1-trifluoromethanesulfonamide], the inhibition at 5 µM in the data set on SREBP2 (HepG2 cells) is 90%. Also, the cytotoxicity at 3 days, 5 μM in data set [1] is 19%. In data set [2] (iv, i.v. @ 2 mg/kg), this compound gave an AUC(0-t) of 10.6 µM·h, a Cmax of 3.44 µM, a Vd of 1.45 L/kg and a clearance of 5 mL/min/kg. In data set [2] (iv, i.v. @ 2 mg/kg), the half-life was 3.35 h. Also, in data set [2] (po, p.o. @ 10 mg/kg), the area under the curve AUC(0-t) worked out at 51.5 µM·h, the highest level (Cmax) was 8.41 µM, the time to peak (Tmax) was 2 h and the bioavailability amounted to 96.8%. Also, the half-life in data set [2] (po, p.o. @ 10 mg/kg) is above 8 h.

In the case of `O=S(=O)(Nc1ccc(-c2csc(-c3ccnc(CC4CCCCC4)c3)n2)c(Cl)c1)C(F)(F)F` [Compound 70, N-(3-chloro-4-{2-[2-(cyclohexylmethyl)pyridin-4-yl]-1,3-thiazol-4-yl}phenyl)-1,1,1-trifluoromethanesulfonamide], the inhibition at 5 µM in the data set on SREBP2 (HepG2 cells) stood at 73%. In addition, the cytotoxicity at 3 days, 5 μM in data set [1] was found to be 100%. In data set [2] (iv, i.v. @ 2 mg/kg), the AUC(0-t) was determined as 2.2 µM·h, the concentration peaked (Cmax) at 4 µM, the Vd was 5.22 L/kg and the clearance is 54.7 mL/min/kg. The half-life in data set [2] (iv, i.v. @ 2 mg/kg) is 1.1 h. For the same compound, in data set [2] (po, p.o. @ 10 mg/kg), the AUC(0-t) came out at 5.19 µM·h, the Cmax came to 2.2 µM, the Tmax is 0.5 h and the bioavailability came out at 46.4%. Also, in data set [2] (po, p.o. @ 10 mg/kg), the half-life is 1.04 h.

As to `COc1cc(-c2csc(-c3ccnc(C(C)(C)C)c3)n2)ccc1NS(=O)(=O)C(F)(F)F` [Compound 59, N-(4-(2-(2-tert-butylpyridin-4-yl)thiazol-4-yl)-2-methoxyphenyl)-1,1,1-trifluoromethanesulfonamide], the inhibition at 20 µM with SREBP2 (setting [3]) was determined as 60.6%. In data set [1], the cytotoxicity at 3 days, 20 μM amounted to 99.8%.
